In patent publication US10131652B2, “Pyrimidinyloxy benzene derivatives as herbicides” (E. I. DU PONT DE NEMOURS AND COMPANY, priority 2014, dated 2018):
Where two headings read alike, the source gives them in different places.

Key:
Test in all cases: Test E pre-/postemergence plant response
Type in all cases: in vivo
[1] = tested on: Italian ryegrass (Lolium multiflorum); conditions: scale 0 to 100, read-out: Plant response rating, Ryegrass, Italian; for pest or weed control at 16 g/ha: 16 g ai/ha; for pest or weed control at 31 g/ha: 31 g ai/ha; for pest or weed control at 62 g/ha: 62 g ai/ha; for pest or weed control at 125 g/ha: 125 g ai/ha
Description: (§1) Seeds of plant species selected from bluegrass (annual bluegrass, Poa annua), blackgrass (Alopecurus myosuroides), canarygrass (Phalaris minor), chickweed (common chickweed, Stellaria media), galium (catchweed bedstraw, Galium aparine), downy bromegrass (Bromus tectorum), field poppy (Papaver rhoeas), field violet (Viola arvensis), green foxtail (Setaria viridis), deadnettle (henbit deadnettle, Lamium amplexicaule), Italian ryegrass (Lolium multiflorum), kochia (Kochia scoparia), lambsquarters (Chenopodium album), oilseed rape (Brassica napus), pigweed (Amaranthus retroflexus), Russian thistle (Salsola iberica), chamomile (scentless chamomile, Matricaria inodora), speedwell (bird's-eye speedwell, Veronica persica), spring barley (Hordeum vulgare), spring wheat (Triticum aestivum), wild buckwheat (Polygonum convolvulus), wild mustard (Sinapis arvensis), wild oat (Avena fatua), wild radish (Raphanus raphanistrum), windgrass (Apera spica-venti), winter barley (Hordeum vulgare), and winter wheat (Triticum aestivum) were planted into a silt loam soil and treated preemergence with test chemicals formulated in a non-phytotoxic solvent mixture which included a surfactant. At the same time, these species were planted in pots containing Redi-Earth® planting medium (Scotts Company, 14111 Scottslawn Road, Marysville, Ohio 43041) comprising spaghnum peat moss, vermiculite, wetting agent and starter nutrients and treated with postemergence applications of the test chemicals formulated in the same manner. Plants ranged in height from 2 to 18 cm (1- to 4-leaf stage).
(§2) Treated plants and controls were maintained in a controlled growth environment for 7 to 21 days after which time all species were compared to controls and visually evaluated. Plant response ratings, summarized in Table E, are based on a scale of 0 to 100 where 0 is no effect and 100 is complete control. A dash (-) response means no test result.

[2] = tested on: bluegrass (annual bluegrass, Poa annua); conditions: scale 0 to 100, read-out: Plant response rating, Bluegrass; for pest or weed control at 16 g/ha: 16 g ai/ha; for pest or weed control at 31 g/ha: 31 g ai/ha; for pest or weed control at 62 g/ha: 62 g ai/ha; for pest or weed control at 125 g/ha: 125 g ai/ha
Description: as §1, §2

[3] = tested on: chickweed (common chickweed, Stellaria media); conditions: scale 0 to 100, read-out: Plant response rating, Chickweed; for pest or weed control at 16 g/ha: 16 g ai/ha; for pest or weed control at 31 g/ha: 31 g ai/ha; for pest or weed control at 62 g/ha: 62 g ai/ha; for pest or weed control at 125 g/ha: 125 g ai/ha
Description: as §1, §2

[4] = tested on: downy bromegrass (Bromus tectorum); conditions: scale 0 to 100, read-out: Plant response rating, Bromegrass, Downy; for pest or weed control at 16 g/ha: 16 g ai/ha; for pest or weed control at 31 g/ha: 31 g ai/ha; for pest or weed control at 62 g/ha: 62 g ai/ha; for pest or weed control at 125 g/ha: 125 g ai/ha
Description: as §1, §2

[5] = tested on: galium (catchweed bedstraw, Galium aparine); conditions: scale 0 to 100, read-out: Plant response rating, Galium; for pest or weed control at 16 g/ha: 16 g ai/ha; for pest or weed control at 31 g/ha: 31 g ai/ha; for pest or weed control at 62 g/ha: 62 g ai/ha; for pest or weed control at 125 g/ha: 125 g ai/ha
Description: as §1, §2

kochia (Kochia scoparia) = conditions: Bassia scoparia, post-emergence, Postemergence, scale 0 to 100, read-out: Plant response rating, Kochia
Description: as §1, §2

Fc1cccc(Oc2ncc(Cl)cn2)c1-c1cc(C(F)F)on1 [Compound 55, 5-chloro-2-[2-[5-(difluoromethyl)-3-isoxazolyl]-3-fluorophenoxy]pyrimidine]
20%: pest or weed control at 16 g/ha ([1]; post-emergence, Postemergence) | pest or weed control at 31 g/ha ([1]; post-emergence, Postemergence) | pest or weed control at 125 g/ha ([1]; post-emergence, Postemergence) | pest or weed control at 16 g/ha ([4]; pre-emergence, Preemergence) | pest or weed control at 31 g/ha ([4]; pre-emergence, Preemergence)
10%: pest or weed control at 31 g/ha ([2]; pre-emergence, Preemergence) | pest or weed control at 62 g/ha ([2]; pre-emergence, Preemergence) | pest or weed control at 62 g/ha ([4]; post-emergence, Postemergence) | pest or weed control at 125 g/ha ([4]; post-emergence, Postemergence) | pest or weed control at 16 g/ha ([5]; pre-emergence, Preemergence)
100%: pest or weed control at 125 g/ha ([2]; pre-emergence, Preemergence) | pest or weed control at 31 g/ha ([3]; pre-emergence, Preemergence) | pest or weed control at 62 g/ha ([3]; pre-emergence, Preemergence) | pest or weed control at 125 g/ha ([3]; pre-emergence, Preemergence) | pest or weed control at 31 g/ha ([5]; pre-emergence, Preemergence) | pest or weed control at 125 g/ha ([5]; pre-emergence, Preemergence)
25%: pest or weed control at 125 g/ha ([2]; post-emergence, Postemergence)
55%: pest or weed control at 16 g/ha ([3]; post-emergence, Postemergence) | pest or weed control at 31 g/ha ([3]; post-emergence, Postemergence) | pest or weed control at 62 g/ha ([4]; pre-emergence, Preemergence) | pest or weed control at 125 g/ha ([4]; pre-emergence, Preemergence)
0%: pest or weed control at 16 g/ha ([1]; pre-emergence, Preemergence) | pest or weed control at 31 g/ha ([1]; pre-emergence, Preemergence) | pest or weed control at 16 g/ha ([2]; post-emergence, Postemergence) | pest or weed control at 31 g/ha ([2]; post-emergence, Postemergence) | pest or weed control at 16 g/ha ([2]; pre-emergence, Preemergence) | pest or weed control at 31 g/ha ([4]; post-emergence, Postemergence)
5%: pest or weed control at 16 g/ha ([4]; post-emergence, Postemergence)
85%: pest or weed control at 31 g/ha ([5]; post-emergence, Postemergence) | pest or weed control at 125 g/ha ([5]; post-emergence, Postemergence) | pest or weed control at 62 g/ha (kochia (Kochia scoparia); 62 g ai/ha)
50%: pest or weed control at 62 g/ha ([1]; pre-emergence, Preemergence) | pest or weed control at 125 g/ha ([1]; pre-emergence, Preemergence)
65%: pest or weed control at 16 g/ha ([3]; pre-emergence, Preemergence) | pest or weed control at 16 g/ha (kochia (Kochia scoparia); 16 g ai/ha)
80%: pest or weed control at 62 g/ha ([5]; post-emergence, Postemergence)
70%: pest or weed control at 62 g/ha ([3]; post-emergence, Postemergence) | pest or weed control at 125 g/ha ([3]; post-emergence, Postemergence) | pest or weed control at 16 g/ha ([5]; post-emergence, Postemergence) | pest or weed control at 62 g/ha ([5]; pre-emergence, Preemergence) | pest or weed control at 31 g/ha (kochia (Kochia scoparia); 31 g ai/ha)
15%: pest or weed control at 62 g/ha ([1]; post-emergence, Postemergence) | pest or weed control at 62 g/ha ([2]; post-emergence, Postemergence)
